Reference: ChEMBL document CHEMBL3608229, “Saccharothrixones A-D, Tetracenomycin-Type Polyketides from the Marine-Derived Actinomycete Saccharothrix sp. 10-10” (J Nat Prod, 2015)

What was measured:
Morganella morganii = assay: Antibacterial activity against beta-lactamase producing Morganella morganii ATCC 25830 after 18 hrs by agar dilution method; assay type: functional; settings: ATCC 25830, 18 h
Proteus vulgaris = assay: Antibacterial activity against beta-lactamase producing Proteus vulgaris ATCC 29905 after 18 hrs by agar dilution method; assay type: functional; settings: ATCC 29905, 18 h
[1] = system: Acinetobacter calcoaceticus; assay: Antibacterial activity against beta-lactamase producing Acinetobacter calcoaceticus ATCC 19606 after 18 hrs by agar dilution method; assay type: functional; settings: ATCC 19606, 18 h
HepG2 = assay: Cytotoxicity against human HepG2 cells assessed as growth inhibition after 48 hrs by sulforhodamine B assay; assay type: functional, cell-based; settings: HepG2, 48 h
MCF7 = assay: Cytotoxicity against human MCF7 cells assessed as growth inhibition after 48 hrs by sulforhodamine B assay; assay type: functional, cell-based; settings: MCF7, 48 h
K562 = assay: Cytotoxicity against human K562 cells assessed as growth inhibition after 48 hrs by sulforhodamine B assay; assay type: functional, cell-based; settings: K562, 48 h
Staphylococcus aureus [2] = assay: Antibacterial activity against methicillin-susceptible Staphylococcus aureus ATCC 29213 after 18 hrs by agar dilution method; assay type: functional; settings: ATCC 29213, 18 h
Staphylococcus aureus [3] = assay: Antibacterial activity against methicillin-susceptible Staphylococcus aureus 15 after 18 hrs by agar dilution method; assay type: functional; settings: Staphylococcus aureus, 15, 18 h
Staphylococcus aureus [4] = assay: Antibacterial activity against methicillin-resistant Staphylococcus aureus ATCC 33591 after 18 hrs by agar dilution method; assay type: functional; settings: ATCC 33591, 18 h
Staphylococcus aureus [5] = assay: Antibacterial activity against methicillin-resistant Staphylococcus aureus 12-28 after 18 hrs by agar dilution method; assay type: functional; settings: 12-28, 18 h
Staphylococcus aureus [6] = assay: Antibacterial activity against methicillin-resistant Staphylococcus aureus 12-33 after 18 hrs by agar dilution method; assay type: functional; settings: 12-33, 18 h
[7] = system: Staphylococcus epidermidis; assay: Antibacterial activity against methicillin-susceptible Staphylococcus epidermidis ATCC 12228 after 18 hrs by agar dilution method; assay type: functional; settings: ATCC 12228, 18 h
[8] = system: Staphylococcus epidermidis; assay: Antibacterial activity against methicillin-resistant Staphylococcus epidermidis 12-6 after 18 hrs by agar dilution method; assay type: functional; settings: 12-6, 18 h
[9] = system: Staphylococcus epidermidis; assay: Antibacterial activity against methicillin-resistant Staphylococcus epidermidis 12-8 after 18 hrs by agar dilution method; assay type: functional; settings: 12-8, 18 h
Enterococcus faecalis [10] = assay: Antibacterial activity against vancomycin-susceptible Enterococcus faecalis ATCC 29212 after 18 hrs by agar dilution method; assay type: functional; settings: ATCC 29212, 18 h
Enterococcus faecalis [11] = assay: Antibacterial activity against vancomycin-resistant Enterococcus faecalis ATCC 51299 after 18 hrs by agar dilution method; assay type: functional; settings: ATCC 51299, 18 h
Enterococcus faecalis [12] = assay: Antibacterial activity against vancomycin-resistant Enterococcus faecalis 12-5 after 18 hrs by agar dilution method; assay type: functional; settings: 12-5, 18 h
Enterococcus faecalis [13] = assay: Antibacterial activity against vancomycin-resistant Enterococcus faecalis 09-9 after 18 hrs by agar dilution method; assay type: functional; settings: 09-9, 18 h
Enterococcus faecium [14] = assay: Antibacterial activity against vancomycin-resistant Enterococcus faecium ATCC 700221 after 18 hrs by agar dilution method; assay type: functional; settings: ATCC 700221, 18 h
Enterococcus faecium [15] = assay: Antibacterial activity against vancomycin-resistant Enterococcus faecium 12-1 after 18 hrs by agar dilution method; assay type: functional; settings: 12-1, 18 h
Enterococcus faecium [16] = assay: Antibacterial activity against vancomycin-resistant Enterococcus faecium 12-3 after 18 hrs by agar dilution method; assay type: functional; settings: 12-3, 18 h
Escherichia coli = assay: Antibacterial activity against beta-lactamase producing Escherichia coli ATCC 25922 after 18 hrs by agar dilution method; assay type: functional; settings: ATCC 25922, 18 h
Klebsiella pneumoniae [17] = assay: Antibacterial activity against extended spectrum beta-lactamase producing Klebsiella pneumoniae ATCC 700603 after 18 hrs by agar dilution method; assay type: functional; settings: ATCC 700603, 18 h
Klebsiella pneumoniae [18] = assay: Antibacterial activity against NDM-1 producing Klebsiella pneumoniae ATCC BAA-2146 after 18 hrs by agar dilution method; assay type: functional; settings: ATCC BAA-2146, 18 h
Pseudomonas aeruginosa = assay: Antibacterial activity against beta-lactamase producing Pseudomonas aeruginosa ATCC 27853 after 18 hrs by agar dilution method; assay type: functional; settings: ATCC 27853, 18 h

Row | SMILES | MIC (Morganella morganii) [µg/mL] | MIC (Proteus vulgaris) [µg/mL] | MIC [1] [µg/mL] | IC50 (HepG2) [µM] | IC50 (MCF7) [µM] | IC50 (K562) [µM] | MIC (Staphylococcus aureus [2]) [µg/mL] | MIC (Staphylococcus aureus [3]) [µg/mL] | MIC (Staphylococcus aureus [4]) [µg/mL] | MIC (Staphylococcus aureus [5]) [µg/mL] | MIC (Staphylococcus aureus [6]) [µg/mL] | MIC [7] [µg/mL] | MIC [8] [µg/mL] | MIC [9] [µg/mL] | MIC (Enterococcus faecalis [10]) [µg/mL] | MIC (Enterococcus faecalis [11]) [µg/mL] | MIC (Enterococcus faecalis [12]) [µg/mL] | MIC (Enterococcus faecalis [13]) [µg/mL] | MIC (Enterococcus faecium [14]) [µg/mL] | MIC (Enterococcus faecium [15]) [µg/mL] | other results
1 | COC(=O)c1c(OC)cc2cc3c(c(O)c2c1C)C(=O)O[C@@H]3[C@@]1(O)[C@H](O)C(OC)=CC(=O)[C@@H]1O | > 64 | > 64 | > 64 | > 100 | > 100 | > 100 | > 64 | > 64 | > 64 | > 64 | > 64 | > 64 | > 64 | > 64 | > 64 | > 64 | > 64 | > 64 | > 64 | > 64 | MIC (Enterococcus faecium [16]): > 64 µg/mL; MIC (Escherichia coli): > 64 µg/mL; MIC (Klebsiella pneumoniae [17]): > 64 µg/mL; MIC (Klebsiella pneumoniae [18]): > 64 µg/mL; MIC (Pseudomonas aeruginosa): > 64 µg/mL
2 | COC(=O)c1c(OC)cc2cc3c(c(O)c2c1C)C(=O)O[C@@H]3[C@@]1(O)[C@H](O)C(OC)=CC(=O)[C@@H]1OC | > 64 | > 64 | > 64 | > 100 | > 100 | > 100 | > 64 | > 64 | > 64 | > 64 | > 64 | > 64 | > 64 | > 64 | > 64 | > 64 | > 64 | > 64 | > 64 | > 64 | MIC (Enterococcus faecium [16]): > 64 µg/mL; MIC (Escherichia coli): > 64 µg/mL; MIC (Klebsiella pneumoniae [17]): > 64 µg/mL; MIC (Klebsiella pneumoniae [18]): > 64 µg/mL; MIC (Pseudomonas aeruginosa): > 64 µg/mL
3 | COC(=O)c1c(OC)cc2cc3c(c(O)c2c1C)C(=O)O[C@H]3[C@@]1(O)[C@H](O)C(OC)=CC(=O)[C@H]1OC | > 64 | > 64 | > 64 | > 100 | > 100 | > 100 | > 64 | > 64 | > 64 | > 64 | > 64 | > 64 | > 64 | > 64 | > 64 | > 64 | > 64 | > 64 | > 64 | > 64 | MIC (Enterococcus faecium [16]): > 64 µg/mL; MIC (Escherichia coli): > 64 µg/mL; MIC (Klebsiella pneumoniae [17]): > 64 µg/mL; MIC (Klebsiella pneumoniae [18]): > 64 µg/mL; MIC (Pseudomonas aeruginosa): > 64 µg/mL
4 | COC(=O)c1c(OC)cc2cc3c(c(O)c2c1C)C(=O)[C@@]1(O)C(OC)=CC(=O)[C@H](OC)[C@@]1(O)C3=O | > 64 | > 64 | > 64 | 7.5 | 16.2 | 20.8 | > 64 | > 64 | > 64 | > 64 | > 64 | > 64 | > 64 | > 64 | > 64 | > 64 | > 64 | > 64 | > 64 | > 64 | MIC (Enterococcus faecium [16]): > 64 µg/mL; MIC (Escherichia coli): > 64 µg/mL; MIC (Klebsiella pneumoniae [17]): > 64 µg/mL; MIC (Klebsiella pneumoniae [18]): > 64 µg/mL; MIC (Pseudomonas aeruginosa): > 64 µg/mL
5 | COC(=O)c1c(OC)cc2cc3c(c(O)c2c1C)C(=O)[C@]1(OC)C(=O)C=C(OC)[C@@H](O)[C@]1(O)C3=O |  |  |  | 1.6 | 1.5 | 5.2 |  |  |  |  |  |  |  |  |  |  |  |  |  |  | 
6 | COc1cccc2c1C(=O)c1c(O)c3c(c(O)c1C2=O)C[C@@](O)(C(=O)CO)C[C@@H]3O[C@H]1C[C@H](N)[C@H](O)[C@H](C)O1 [DOXORUBICIN] |  |  |  | 5.4 |  | 10.9 |  |  |  |  |  |  |  |  |  |  |  |  |  |  | 
7 | C[C@H]1COc2c(N3CCN(C)CC3)c(F)cc3c(=O)c(C(=O)O)cn1c23.C[C@H]1COc2c(N3CCN(C)CC3)c(F)cc3c(=O)c(C(=O)O)cn1c23.O [LEVOFLOXACIN] | 0.06 | ≤ 0.03 | 0.5 |  |  |  | 0.25 | 0.25 | 0.25 | 0.25 | 128 | 0.25 | 0.5 | 8 | 0.5 | 0.5 | 0.5 | > 128 | 128 | 32 | MIC (Enterococcus faecium [16]): 64 µg/mL; MIC (Escherichia coli): ≤ 0.03 µg/mL; MIC (Klebsiella pneumoniae [18]): > 128 µg/mL; MIC (Pseudomonas aeruginosa): 0.5 µg/mL
